Assay results as given in US20250026721A1, “COMPOUNDS AND METHODS FOR MODULATING RAS-PI3K” (Vividion Therapeutics, Inc., priority 2023, published 2025).

Legend:
PIK3CA = target: T1, PIK3CA (Homo sapiens, UniProt P42336); assay: In vitro ELISA target engagement assay for PIK3CA in Jurkat cellular lysate (competition with PIK3CA Biotin Probe); format: binding; settings: 1 hour at rt, then 500 nM PIK3CA Biotin Probe, read-out: Elisa Target Engagement Assay (TE50)
T1 construct: endogenous in cells; host or cells: Jurkat cell lysate
Summary of the method: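 Jurkat lysate from sonicated frozen cells was preincubated 1 h at rt with serially diluted compound up to 200 μM, then labelled 1 h at rt with PIK3CA biotin probe at 500 nM final. Probe-bound PIK3CA was captured on antibody-coated plates and detected with Neutravidin-HRP luminescence; TE50 derived from the dose response.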

[1] = test system: pAKT(S473) in FaDu cell line; assay: In vitro Phospho-AKT(S473) HTRF analysis in FaDu cells; format: cell-based; settings: Homo sapiens, 0.5 h; for IC50: FaDu cells, 30 minutes at 37° C.; for Emax: FaDu, read-out: FaDu pAKT Imax % control
Procedure: Example 5. In Vitro Phosgho-AKT(S473) Analysis
Functional activity of the compounds to inhibit pAKT were assessed in FaDu or H358 cell lines as indicated below.
• Complete Media • FBS, Corning catalog #35-010-CV • Anti-Anti, Gibco catalog #15240-062 • 96 well plate, Corning catalog #3610 • TrypLE, Gibco catalog #12604013 • Phospho-AKT(S473) HTRF kit, Cisbio catalog #64AKSPET
Cells were detached from the tissue culture flask with TrypLE. The cells were pelleted at 500×g for 5 min, TrypLe was removed and then resuspended in the necessary volume of media+1% FBS to give the appropriate cell density (17,500 cells/mL for FaDu; 20,000 cells/mL for H358). 100 μL of cell suspension/well was dispensed into the 96-well plate while keeping the outer wells of the plate free of cells and filled with PBS to prevent evaporation of interior wells. The plate was incubated at 37° C. and allowed to adhere overnight. The cells were treated with a dose response of compound and incubated at 37° C. for 30 minutes. The cells were then processed and pAKT(S473) levels were assessed following the specifications of the Cisbio HTRF kit.

T1 sequence (P42336 whole entry): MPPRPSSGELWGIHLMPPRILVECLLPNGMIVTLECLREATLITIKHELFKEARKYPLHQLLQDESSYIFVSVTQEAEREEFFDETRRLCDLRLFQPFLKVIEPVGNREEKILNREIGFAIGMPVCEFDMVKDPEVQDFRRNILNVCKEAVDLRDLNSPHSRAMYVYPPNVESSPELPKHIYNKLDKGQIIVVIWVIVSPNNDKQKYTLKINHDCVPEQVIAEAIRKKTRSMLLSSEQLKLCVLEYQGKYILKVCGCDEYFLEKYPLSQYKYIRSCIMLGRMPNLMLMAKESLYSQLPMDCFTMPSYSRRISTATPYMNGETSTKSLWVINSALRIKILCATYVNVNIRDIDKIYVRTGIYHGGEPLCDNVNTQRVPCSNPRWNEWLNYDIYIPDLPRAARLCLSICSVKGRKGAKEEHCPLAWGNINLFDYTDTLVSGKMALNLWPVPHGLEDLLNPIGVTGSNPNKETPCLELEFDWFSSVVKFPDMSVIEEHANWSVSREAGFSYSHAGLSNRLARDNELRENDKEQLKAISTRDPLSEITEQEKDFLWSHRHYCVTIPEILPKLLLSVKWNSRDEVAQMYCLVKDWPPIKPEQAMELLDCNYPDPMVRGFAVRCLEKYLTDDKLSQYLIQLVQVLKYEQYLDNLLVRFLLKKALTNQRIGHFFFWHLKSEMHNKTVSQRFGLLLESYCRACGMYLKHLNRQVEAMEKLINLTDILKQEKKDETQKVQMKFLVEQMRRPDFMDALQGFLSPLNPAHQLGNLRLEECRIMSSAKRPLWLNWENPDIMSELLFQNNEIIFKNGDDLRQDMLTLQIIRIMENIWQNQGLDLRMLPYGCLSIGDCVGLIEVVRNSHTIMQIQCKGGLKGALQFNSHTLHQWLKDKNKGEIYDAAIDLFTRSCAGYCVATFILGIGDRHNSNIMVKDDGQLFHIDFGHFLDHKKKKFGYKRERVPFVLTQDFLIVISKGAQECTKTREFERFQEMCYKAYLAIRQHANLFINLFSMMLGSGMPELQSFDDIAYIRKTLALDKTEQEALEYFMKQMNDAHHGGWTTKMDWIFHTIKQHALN
T1 sequence (P27986 whole entry partner): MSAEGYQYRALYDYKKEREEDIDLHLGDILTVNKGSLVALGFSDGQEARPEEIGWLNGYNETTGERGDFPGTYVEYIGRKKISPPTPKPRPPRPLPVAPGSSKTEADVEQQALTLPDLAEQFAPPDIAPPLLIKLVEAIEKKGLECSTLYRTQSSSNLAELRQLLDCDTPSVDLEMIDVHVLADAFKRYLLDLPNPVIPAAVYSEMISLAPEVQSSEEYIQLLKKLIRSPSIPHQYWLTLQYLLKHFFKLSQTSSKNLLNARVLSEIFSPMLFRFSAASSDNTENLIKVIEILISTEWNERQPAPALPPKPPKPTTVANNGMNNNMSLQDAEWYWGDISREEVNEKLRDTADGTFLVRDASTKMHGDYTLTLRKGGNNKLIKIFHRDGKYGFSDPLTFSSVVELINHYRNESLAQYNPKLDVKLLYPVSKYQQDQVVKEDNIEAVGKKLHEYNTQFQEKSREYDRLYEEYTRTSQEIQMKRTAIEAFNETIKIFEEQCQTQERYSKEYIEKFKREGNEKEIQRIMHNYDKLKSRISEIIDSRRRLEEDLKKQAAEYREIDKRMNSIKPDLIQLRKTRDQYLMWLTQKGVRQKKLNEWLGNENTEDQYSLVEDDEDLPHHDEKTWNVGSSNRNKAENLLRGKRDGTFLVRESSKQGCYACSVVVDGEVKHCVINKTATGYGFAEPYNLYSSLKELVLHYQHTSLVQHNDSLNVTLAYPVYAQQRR

Row | Structure (SMILES) | IC50 (PIK3CA) | IC50 [1] | Emax [1]
1 | CC(=O)c1ccc(S(=O)(=O)N2CCC(F)(C(=O)N[C@H](C)/C=C/C(=O)N3CC(F)(F)C3)CC2)c(-c2ccccc2Cl)c1 [Compound 138, (R,E)-1-((5-acetyl-2′-chloro-[1,1′-biphenyl]-2-yl)sulfonyl)-N-(5-(3,3-difluoroazetidin-1-yl)-5-oxopent-3-en-2-yl)-4-fluoropiperidine-4-carboxamide] | 0.34 µM | 0.292 µM | 93.5%
2 | COC[C@@H](/C=C\S(C)(=O)=O)NC(=O)C1(F)CCN(S(=O)(=O)c2ccc(Br)cc2-c2ccccc2Cl)CC1 [Compound 246, (R,Z)-1-((5-bromo-2′-chloro-[1,1′-biphenyl]-2-yl)sulfonyl)-4-fluoro-N-(1-methoxy-4-(methylsulfonyl)but-3-en-2-yl)piperidine-4-carboxamide] | 0.042 µM | 0.163 µM | –
3 | C[C@H](/C=C/C(=O)N1CC(F)(F)C1)NC(=O)[C@@]1(F)CCCN(C(=O)c2ccc(Br)cc2-c2ccccc2Cl)CC1 [Compound 243, (R)-1-(5-bromo-2′-chloro-[1,1′-biphenyl]-2-carbonyl)-N-((R,E)-5-(3,3-difluoroazetidin-1-yl)-5-oxopent-3-en-2-yl)-4-fluoroazepane-4-carboxamide] | 0.67 µM | 0.761 µM | 68.7%
4 | CC(O)c1ccc(S(=O)(=O)N2CC[C@@](F)(C(=O)N[C@H](C)/C=C/C(=O)N3CC(F)(F)C3)C[C@H]2C)c(-c2ccccc2Cl)c1 (mixture of isomers) [Compound 252, (2R,4S)-1-((2′-chloro-5-((RS)-1-hydroxyethyl)-[1,1′-biphenyl]-2-yl)sulfonyl)-N-((R,E)-5-(3,3-difluoroazetidin-1-yl)-5-oxopent-3-en-2-yl)-4-fluoro-2-methylpiperidine-4-carboxamide] | 0.28 µM | 0.248 µM | 85.8%
5 | C[C@H](/C=C/C(=O)N1CC(F)C1)NC(=O)C1(F)CCN(S(=O)(=O)c2ccc(C(F)(F)F)cc2-c2ccccc2Cl)CC1 [Compound 216, (R,E)-1-((2′-chloro-5-(trifluoromethyl)-[1,1′-biphenyl]-2-yl)sulfonyl)-4-fluoro-N-(5-(3-fluoroazetidin-1-yl)-5-oxopent-3-en-2-yl)piperidine-4-carboxamide] | 0.55 µM | 0.688 µM | 108%
6 | C[C@H](/C=C\S(C)(=O)=O)NC(=O)[C@@]1(F)CCCN(C(=O)[C@@]2(C)CN(CC(F)(F)F)C[C@H]2c2ccccc2Cl)CC1 [Compound 254, (R)-1-((3R,4R)-4-(2-chlorophenyl)-3-methyl-1-(2,2,2-trifluoroethyl)pyrrolidine-3-carbonyl)-4-fluoro-N-((R,Z)-4-(methylsulfonyl)but-3-en-2-yl)azepane-4-carboxamide] | 0.88 µM | 0.911 µM | 92.5%
7 | C[C@H](/C=C\S(C)(=O)=O)NC(=O)[C@@]1(F)CCCN(C(=O)c2ccc(C(F)(F)F)cc2-c2ccccc2Cl)CC1 [Compound 242, (R)-1-(2′-chloro-5-(trifluoromethyl)-[1,1′-biphenyl]-2-carbonyl)-4-fluoro-N-((R,Z)-4-(methylsulfonyl)but-3-en-2-yl)azepane-4-carboxamide] | 0.072 µM | 0.138 µM | –
8 | C[C@H](/C=C\S(C)(=O)=O)NC(=O)[C@@]1(F)CCCN(C(=O)[C@H]2CN(C3CC3)C[C@H]2c2ccccc2Cl)CC1 [Compound 303, (R)-1-((3R,4R)-4-(2-chlorophenyl)-1-cyclopropylpyrrolidine-3-carbonyl)-4-fluoro-N-((R,Z)-4-(methylsulfonyl)but-3-en-2-yl)azepane-4-carboxamide] | 0.557 µM | 0.243 µM | 102%

Further compounds by falling IC50 (PIK3CA), results first:

Row | IC50 (PIK3CA) | IC50 [1] | Structure (SMILES) | Emax [1]
9 | 0.85 µM | 0.743 µM | C[C@H](/C=C\S(C)(=O)=O)NC(=O)C1(F)CCN(S(=O)(=O)c2ccc(Br)cc2-c2cccc(Br)c2)CC1 [Compound 58, (R,Z)-1-((3′,5-dibromo-[1,1′-biphenyl]-2-yl)sulfonyl)-4-fluoro-N-(4-(methylsulfonyl)but-3-en-2-yl)piperidine-4-carboxamide] | 97.5%
10 | 0.79 µM | 0.672 µM | C[C@H](/C=C/S(C)(=O)=O)NC(=O)[C@@]1(F)CCCN(C(=O)[C@H]2CN(CC(F)(F)F)C[C@H]2c2ccccc2Cl)CC1 [Compound 177, (R)-1-((3R,4R)-4-(2-chlorophenyl)-1-(2,2,2-trifluoroethyl)pyrrolidine-3-carbonyl)-4-fluoro-N-((R,E)-4-(methylsulfonyl)but-3-en-2-yl)azepane-4-carboxamide] | 69.5%
11 | 0.65 µM | 1.12 µM | C[C@H](/C=C\S(C)(=O)=O)NC(=O)C1(F)CCN(S(=O)(=O)c2ccc(N3CCCC3=O)cc2-c2ccccc2Cl)CC1 [Compound 205, (R,Z)-1-((2′-chloro-5-(2-oxopyrrolidin-1-yl)-[1,1′-biphenyl]-2-yl)sulfonyl)-4-fluoro-N-(4-(methylsulfonyl)but-3-en-2-yl)piperidine-4-carboxamide] | –
12 | 0.52 µM | 0.348 µM | COCc1ccc(S(=O)(=O)N2CC[C@@](F)(C(=O)N[C@H](C)/C=C/C(=O)N3CC(F)(F)C3)C[C@H]2C)c(-c2ccccc2Cl)c1 [Compound 156, (2R,4S)-1-((2′-chloro-5-(methoxymethyl)-[1,1′-biphenyl]-2-yl)sulfonyl)-N-((R,E)-5-(3,3-difluoroazetidin-1-yl)-5-oxopent-3-en-2-yl)-4-fluoro-2-methylpiperidine-4-carboxamide] | 99.2%
13 | 0.35 µM | 1.65 µM | C[C@H](/C=C\S(C)(=O)=O)NC(=O)[C@]1(F)CCN(S(=O)(=O)c2ccc(OC(F)(F)F)cc2-c2ccccc2Cl)[C@H](C)C1 [Compound 250, (2R,4S)-1-((2′-chloro-5-(trifluoromethoxy)-[1,1′-biphenyl]-2-yl)sulfonyl)-4-fluoro-2-methyl-N-((R,Z)-4-(methylsulfonyl)but-3-en-2-yl)piperidine-4-carboxamide] | 96.8%
14 | 0.35 µM | 0.427 µM | CC(O)c1ccc(S(=O)(=O)N2CCC(F)(C(=O)N[C@H](C)/C=C/C(=O)N3CC(F)(F)C3)CC2)c(-c2ccccc2Cl)c1 (stereo partly drawn) [Compound 140, 1-((2′-chloro-5-(1-hydroxyethyl)-[1,1′-biphenyl]-2-yl)sulfonyl)-N-((R,E)-5-(3,3-difluoroazetidin-1-yl)-5-oxopent-3-en-2-yl)-4-fluoropiperidine-4-carboxamide] | 87.7%
15 | 0.14 µM | 0.367 µM | O=C(/C=C/CNC(=O)C1(F)CCN(S(=O)(=O)c2ccc(Br)cc2-c2ccccc2Cl)CC1)N1CC(F)(F)C1 [Compound 282, (E)-1-((5-bromo-2′-chloro-[1,1′-biphenyl]-2-yl)sulfonyl)-N-(4-(3,3-difluoroazetidin-1-yl)-4-oxobut-2-en-1-yl)-4-fluoropiperidine-4-carboxamide] | –
16 | 0.127 µM | 0.136 µM | C[C@H](/C=C\S(C)(=O)=O)NC(=O)[C@@]1(F)CCCN(C(=O)[C@H]2CN(CC(C)(F)F)C[C@H]2c2ccccc2Cl)CC1 [Compound 180, (R)-1-((3R,4R)-4-(2-chlorophenyl)-1-(2,2-difluoropropyl)pyrrolidine-3-carbonyl)-4-fluoro-N-((R,Z)-4-(methylsulfonyl)but-3-en-2-yl)azepane-4-carboxamide] | 96.9%
17 | 0.11 µM | 0.214 µM | C[C@@H](/C=C\S(C)(=O)=O)NC(=O)C1(F)CCN(S(=O)(=O)c2cnc(C(F)(F)F)cc2-c2cccc(F)c2Cl)CC1 [Compound 210, (S,Z)-1-((4-(2-chloro-3-fluorophenyl)-6-(trifluoromethyl)pyridin-3-yl)sulfonyl)-4-fluoro-N-(4-(methylsulfonyl)but-3-en-2-yl)piperidine-4-carboxamide] | –
18 | 0.062 µM | 0.281 µM | C[C@H](/C=C\S(C)(=O)=O)NC(=O)[C@@]1(F)CCCN(C(=O)c2ccc(Br)cc2-c2ccccc2Cl)CC1 [Compound 241, (R)-1-(5-bromo-2′-chloro-[1,1′-biphenyl]-2-carbonyl)-4-fluoro-N-((R,Z)-4-(methylsulfonyl)but-3-en-2-yl)azepane-4-carboxamide] | 95.3%
19 | 0.061 µM | 0.0674 µM | O=C(/C=C\CNC(=O)C1(F)CCN(S(=O)(=O)c2ccc(C(F)(F)F)cc2-c2ccccc2Cl)CC1)N1CC(F)(F)C1 [Compound 284, (Z)-1-((2′-chloro-5-(trifluoromethyl)-[1,1′-biphenyl]-2-yl)sulfonyl)-N-(4-(3,3-difluoroazetidin-1-yl)-4-oxobut-2-en-1-yl)-4-fluoropiperidine-4-carboxamide] | –
20 | 0.025 µM | 0.0292 µM | C[C@H](/C=C\S(=O)(=O)[C@H]1CCN(C)C1)NC(=O)C1(F)CCN(S(=O)(=O)c2ccc(Br)cc2-c2ccccc2Cl)CC1 (single isomer, unassigned) [Compound 238, 1-((5-bromo-2′-chloro-[1,1′-biphenyl]-2-yl)sulfonyl)-4-fluoro-N-((R,Z)-4-(((*S)-1-methylpyrrolidin-3-yl)sulfonyl)but-3-en-2-yl)piperidine-4-carboxamide] | –
